Source: patent US20040230057A1, “Dye for optical recording medium” (priority 2003, published 2004)

Test: thermal gravimetric analysis
Assay type: physicochemical
Details: temperature of a 5% thermal weight loss
Excerpt: (§1) The results of the thermal gravametric analysis and the ultraviolent-visible absorption spectroscopy of the optical recording medium dyes obtained in the above experiment 1 to experiment 8 are summarized in Table 1. The thermal gravametric analysis and the ultraviolent-visible absorption spectroscopy detect, respectively, the thermal breakdown temperature (the temperature of a 5% thermal weight loss) and the optical property (the largest absorption wavelength, absorption coefficient of the solution). […] Further, the thermal breakdown temperatures are above 250 degrees Celsius. Accordingly, the optical recording medium dyes of the present invention comprises a broad wavelength range and has favorable thermal stability and solubility.

SMILES | Thermal Breakdown Temperature [°C]
CCCCN1C(=CC=Cc2ccc3ccccc3[n+]2CCCC)C(C)(C)c2cc(Cl)ccc21 [Experiment 1] | 280.2
CCCCN1C(=CC=Cc2ccc3ccccc3[n+]2CCCC)C(C)(C)c2c1ccc1ccccc21 [Experiment 2] | 268.6
CCCCN1C(=CC=Cc2ccc3ccccc3[n+]2CCCC)C(C)(C)c2c1ccc1ccccc21 [Experiment 3] | 274.2
CCCC[n+]1c(C=CC=C2N(C)c3ccc([N+](=O)[O-])cc3C2(C)C)ccc2ccccc21 [Experiment 4] | 309.5
CCCCN1C(=CC=Cc2cc[n+](CC)c3ccccc23)C(C)(C)c2cc(Cl)ccc21 [Experiment 5] | 266.3
CC[n+]1ccc(C=CC=C2N(C)c3ccc([N+](=O)[O-])cc3C2(C)C)c2ccccc21 [Experiment 6] | 302.7
CCCCN1C(=CC=Cc2cc[n+](CC)c3ccccc23)C(C)(C)c2c1ccc1ccccc21 [Experiment 7] | 270.7

Same assay, conditions: thermal gravimetric analysis

SMILES | temperature of sudden weight loss (thermal breakdown temperature)
CCCCN1C(=CC=Cc2ccc3ccccc3[n+]2CCCC)C(C)(C)c2cc(Cl)ccc21 [Experiment 1] | about 280.2 degrees Celsius
CCCCN1C(=CC=Cc2ccc3ccccc3[n+]2CCCC)C(C)(C)c2c1ccc1ccccc21 [Experiment 2] | about 268.6 degrees Celsius
CCCCN1C(=CC=Cc2ccc3ccccc3[n+]2CCCC)C(C)(C)c2c1ccc1ccccc21 [Experiment 3] | about 274.2 degrees Celsius
CCCC[n+]1c(C=CC=C2N(C)c3ccc([N+](=O)[O-])cc3C2(C)C)ccc2ccccc21 [Experiment 4] | about 309.5 degrees Celsius
CCCCN1C(=CC=Cc2cc[n+](CC)c3ccccc23)C(C)(C)c2cc(Cl)ccc21 [Experiment 5] | about 266.3 degrees Celsius
CC[n+]1ccc(C=CC=C2N(C)c3ccc([N+](=O)[O-])cc3C2(C)C)c2ccccc21 [Experiment 6] | about 302.7 degrees Celsius
CCCCN1C(=CC=Cc2cc[n+](CC)c3ccccc23)C(C)(C)c2c1ccc1ccccc21 [Experiment 7] | about 270.7 degrees Celsius

Test: UV-visible absorption spectroscopy
Assay type: physicochemical
Details: UV-visible absorption spectrum
Excerpt: as §1

SMILES | absorption wavelength [nm]
CCCCN1C(=CC=Cc2ccc3ccccc3[n+]2CCCC)C(C)(C)c2cc(Cl)ccc21 [Experiment 1] | 561.8
CCCCN1C(=CC=Cc2ccc3ccccc3[n+]2CCCC)C(C)(C)c2c1ccc1ccccc21 [Experiment 2] | 583.0
CCCCN1C(=CC=Cc2ccc3ccccc3[n+]2CCCC)C(C)(C)c2c1ccc1ccccc21 [Experiment 3] | 583.0
CCCC[n+]1c(C=CC=C2N(C)c3ccc([N+](=O)[O-])cc3C2(C)C)ccc2ccccc21 [Experiment 4] | 548.2
CCCCN1C(=CC=Cc2cc[n+](CC)c3ccccc23)C(C)(C)c2cc(Cl)ccc21 [Experiment 5] | 598.4
CC[n+]1ccc(C=CC=C2N(C)c3ccc([N+](=O)[O-])cc3C2(C)C)c2ccccc21 [Experiment 6] | 570.0
CCCCN1C(=CC=Cc2cc[n+](CC)c3ccccc23)C(C)(C)c2c1ccc1ccccc21 [Experiment 7] | 625

Same assay, conditions: methanol

SMILES | Maximum Absorption Wavelength [nm]
CCCCN1C(=CC=Cc2ccc3ccccc3[n+]2CCCC)C(C)(C)c2cc(Cl)ccc21 [Experiment 1] | 561.8
CCCCN1C(=CC=Cc2ccc3ccccc3[n+]2CCCC)C(C)(C)c2c1ccc1ccccc21 [Experiment 2] | 583.0
CCCCN1C(=CC=Cc2ccc3ccccc3[n+]2CCCC)C(C)(C)c2c1ccc1ccccc21 [Experiment 3] | 583.0
CCCC[n+]1c(C=CC=C2N(C)c3ccc([N+](=O)[O-])cc3C2(C)C)ccc2ccccc21 [Experiment 4] | 548.2
CCCCN1C(=CC=Cc2cc[n+](CC)c3ccccc23)C(C)(C)c2cc(Cl)ccc21 [Experiment 5] | 598.4
CC[n+]1ccc(C=CC=C2N(C)c3ccc([N+](=O)[O-])cc3C2(C)C)c2ccccc21 [Experiment 6] | 570.0
CCCCN1C(=CC=Cc2cc[n+](CC)c3ccccc23)C(C)(C)c2c1ccc1ccccc21 [Experiment 7] | 625.0
